Reference: PubChem BioAssay AID248 (DTP/NCI, 2004)
Where “and” joins values, the source holds several entries; their conditions need not be identical. Equal values may be shown once. Inconclusive results and toxic doses are left out. Rule as the data show it: active = T/C of 150% or more; inactive = T/C below 125%.

Test system: L1210 leukemia ip in BDF1 mice, survival T/C
Experiment: NCI In Vivo Anticancer Drug Screen. Data for tumor model L1210 Leukemia (intraperitoneal) in B6D2F1 (BDF1) mice
Conditions: endpoint: mean survival time, higher = longer survival
Procedure, shortened: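 Read-out is survival time, reported as the treated-group measurement over the vehicle-control measurement.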

[1] = dose: 100.0 mg/kg/injection, schedule: Q01DX009 (ip), vehicle: saline with Tween-80
[2] = dose: 200.0 mg/kg/injection, schedule: Q01DX009 (ip), vehicle: saline with Tween-80
[3] = dose: 100.0 mg/kg/injection, schedule: Q01DX009 (ip), vehicle: Klucel (hydroxypropylcellulose) (HPC)
[4] = dose: 200.0 mg/kg/injection, schedule: Q01DX009 (ip), vehicle: Klucel (hydroxypropylcellulose) (HPC)
[5] = dose: 200.0 mg/kg/injection, schedule: Q04DX002 (ip), vehicle: Klucel (hydroxypropylcellulose) (HPC)

Measured: T/C

CN(C)c1ccc(/C=C/c2ccc([N+](=O)[O-])cc2[N+](=O)[O-])c(Cl)c1
inactive: dose: 50.0 mg/kg/injection, schedule: Q01DX009 (ip), vehicle: saline with Tween-80 88 % of control | [1] 100 % of control | [2] 91 % of control

COc1ccc(NC(=O)Nc2ccccc2Cl)cc1
inactive: [3] 96 % of control | dose: 100.0 mg/kg/injection, schedule: Q04DX003 (ip), vehicle: Klucel (hydroxypropylcellulose) (HPC) 90 % of control | [4] 95 % of control | dose: 200.0 mg/kg/injection, schedule: Q04DX003 (ip), vehicle: Klucel (hydroxypropylcellulose) (HPC) 92 % of control | dose: 400.0 mg/kg/injection, schedule: Q01DX009 (ip), vehicle: Klucel (hydroxypropylcellulose) (HPC) 91 % of control | dose: 400.0 mg/kg/injection, schedule: Q04DX003 (ip), vehicle: Klucel (hydroxypropylcellulose) (HPC) 90 % of control

CCN(CC)C1=C(Cl)C(=O)c2ccccc2C1=O
inactive: [1] 93 % of control | [2] 93 % of control

Clc1ccccc1C(N1CCCCC1)N1CCCCC1
inactive: dose: 100.0 mg/kg/injection, schedule: Q04DX002 (ip), vehicle: saline 88 % of control | dose: 200.0 mg/kg/injection, schedule: Q04DX002 (ip), vehicle: saline 92 % of control | dose: 400.0 mg/kg/injection, schedule: Q04DX002 (ip), vehicle: saline 95 % of control

C=CCCCCCCCCC(=O)N/N=C/c1ccc(NC(C)=O)cc1
inactive: dose: 12.5 mg/kg/injection, schedule: Q01DX001 (ip), vehicle: other 90 % of control | dose: 12.5 mg/kg/injection, schedule: Q01DX009 (ip), vehicle: other 95 % of control and 96 % of control | dose: 12.5 mg/kg/injection, schedule: Q04DX003 (ip), vehicle: other 96 % of control | dose: 25.0 mg/kg/injection, schedule: Q01DX001 (ip), vehicle: other 91 % of control | dose: 25.0 mg/kg/injection, schedule: Q01DX009 (ip), vehicle: other 114 % of control and 92 % of control | dose: 25.0 mg/kg/injection, schedule: Q04DX003 (ip), vehicle: other 102 % of control | dose: 50.0 mg/kg/injection, schedule: Q01DX009 (ip), vehicle: carboxymethylcellulose (CMC) 98 % of control and 100 % of control | dose: 50.0 mg/kg/injection, schedule: Q04DX003 (ip), vehicle: other 93 % of control | dose: 100.0 mg/kg/injection, schedule: Q01DX009 (ip), vehicle: carboxymethylcellulose (CMC) 96 % of control | dose: 100.0 mg/kg/injection, schedule: Q01DX009 (ip), vehicle: other 98 % of control | dose: 100.0 mg/kg/injection, schedule: Q04DX002 (ip), vehicle: carboxymethylcellulose (CMC) 90 % of control | dose: 100.0 mg/kg/injection, schedule: Q04DX003 (ip), vehicle: other 94 % of control | dose: 200.0 mg/kg/injection, schedule: Q01DX009 (ip), vehicle: carboxymethylcellulose (CMC) 100 % of control and 92 % of control | dose: 200.0 mg/kg/injection, schedule: Q01DX009 (ip), vehicle: other 89 % of control | [5] 114 % of control | dose: 200.0 mg/kg/injection, schedule: Q04DX002 (ip), vehicle: carboxymethylcellulose (CMC) 90 % of control | dose: 200.0 mg/kg/injection, schedule: Q04DX003 (ip), vehicle: other 92 % of control | dose: 400.0 mg/kg/injection, schedule: Q04DX002 (ip), vehicle: carboxymethylcellulose (CMC) 92 % of control | dose: 400.0 mg/kg/injection, schedule: Q04DX003 (ip), vehicle: other 86 % of control

CC(C)(CCl)c1ccccc1
inactive: dose: 100.0 mg/kg/injection, schedule: Q04DX002 (ip), vehicle: saline with Tween-80 107 % of control | dose: 200.0 mg/kg/injection, schedule: Q04DX002 (ip), vehicle: saline with Tween-80 88 % of control | dose: 400.0 mg/kg/injection, schedule: Q04DX002 (ip), vehicle: saline with Tween-80 88 % of control

O=C(N=Nc1c(O)[nH]c2ccc(Br)cc12)c1ccco1
inactive: dose: 100.0 mg/kg/injection, schedule: Q04DX002 (ip), vehicle: Klucel (hydroxypropylcellulose) (HPC) 111 % of control | [5] 95 % of control | dose: 400.0 mg/kg/injection, schedule: Q04DX002 (ip), vehicle: Klucel (hydroxypropylcellulose) (HPC) 95 % of control

N#Cc1c(N)nc2ccccc2[n+]1[O-]
inactive: dose: 50.0 mg/kg/injection, schedule: Q01DX009 (ip), vehicle: Klucel (hydroxypropylcellulose) (HPC) 94 % of control | [3] 97 % of control | [4] 100 % of control
